Test results reported in patent publication US12522614B2, “Topical phosphoinositide 3-kinase inhibitors” (VENTHERA, INC., priority 2019, dated 2026).

Tests used:
[1] = Accelerated stability study of topical gel formulations at 80° C.; type: physicochemical; details: gel formulation, 3 days
[2] = as above; type: physicochemical; details: for Stability in gel formulation: 80° C. for 10 days; for percent hydrolysis to the parent compound MTPP: gel formulation, 80° C.
Procedure: Topical gel formulations were prepared using excipients as shown in Table 2 according to Example 8, in which Compounds 1.002, 1.012, and 1.006 were used as the active ingredient, respectively. These gel formulations were subjected to stability study at 80° C. for 10 days. Stability under the condition of at 80° C. for 10 days is expected to be approximately equivalent to the stability for three (3) years at room temperature. A relative purity of the tested compound after being exposed for 5 days and 10 days at 80° C. was determined by HPLC, as compared to its initial purity (at day 0).
The values shown in the table are percent hydrolysis of the respective compounds to the parent compound MTPP.
Topical gel formulations of Compound 1.002 were prepared using excipients as shown in Table 2 according to Example 8, in which the content of oleic acid varied at 1%, 2%, 5%, and 10%, respectively. These gel formulations were subjected to stability study at 80° C. for 10 days, which is expected to be approximately equivalent to the stability for three (3) years at room temperature. A purity of the tested compound on day 0, 5, 7, and 10 at 80° C. was determined by HPLC. The detected impurity of the tested compound appears to be the hydrolysis product, as MTPP. Table 17 represents stability data of Compound 1.002 in topical formulations having oleic acid at various contents.
Gel formulations of Example 17 were subjected to stability study at 80° C. for 10 days. Stability under the condition of at 80° C. for 10 days is expected to be approximately equivalent to the stability for three (3) years at room temperature. A relative purity of Compound 1.002 after being exposed for 5 days and 10 days at 80° C. was determined by HPLC, as compared to its initial purity (at day 0).

PI3Kd (p110d/p85a) = molecular target: T1, PI3Kd (p110d/p85a) (Homo sapiens, UniProt O00329); assay: Lipid kinase inhibitory activity, ADP-Glo; type: biochemical; details: δ
T1 construct: purchased Reaction Biology Corporation (RBC)
Procedure: (§1) Lipid kinases: Lipid kinases from Reaction Biology Corporation (RBC) in ADP-Glo format were used.
(§2) Assay Description: The kinase reactions utilized ATP and produced ADP as a byproduct. The ADP production was quantified by ADP-Glo luminescence detection. This assay was a 3-step reaction. First, the kinase reaction with lipid substrate was carried out in the presence of ATP, and the reaction was quenched and depleted remaining ATP with ADP-Glo™ reagent, and then finally ADP was converted to ATP which was measured using a luciferase/luciferin reaction.
(§3) Assay Procedure: The assay was performed according to the steps as follows: • 1. Preparing substrate in freshly prepared reaction buffer; • 2. Delivering kinase into the substrate solution and gently mixing; • 3. Delivering compounds in […] into the kinase reaction mixture by Acoustic technology (Echo550; nanoliter range), incubating for 20 minutes at room temperature; • 4. Delivering ATP into the reaction mixture to initiate the reaction; • 5. Incubating for 30 minutes at 30° C.; • 6. Quenching the reaction with ADP-Glo reagent and incubating for 40 minutes; • 7. Adding Detection Mixture and incubating for 30 minutes; and • 8. Measuring luminescence.
(§4) Data Analysis: The luminescence was converted into μM ADP production based on ADP standard curves. The nonlinear regression to obtain the standard curve and IC50 values were performed using Graphpad Prism software.

PI3Kb (p110b/p85a) = molecular target: T2, PI3Kb (p110b/p85a) (Homo sapiens, UniProt P42338); assay: Lipid kinase inhibitory activity, ADP-Glo; type: biochemical; details: β
T2 construct: purchased Reaction Biology Corporation (RBC)
Procedure: as §1, §2, §3, §4

PI3Kg (p110g) = molecular target: T3, PI3Kg (p110g) (Homo sapiens, UniProt P48736); assay: Lipid kinase inhibitory activity, ADP-Glo; type: biochemical; details: γ
T3 construct: purchased Reaction Biology Corporation (RBC)
Procedure: as §1, §2, §3, §4

[3] = molecular target: T4, PI3K (p110a(H1047R)/p85a) (Homo sapiens, UniProt P42336, H1047R); assay: Lipid kinase inhibitory activity, ADP-Glo; type: biochemical; details: α H1047R
T4 construct: purchased Reaction Biology Corporation (RBC)
Procedure: as §1, §2, §3, §4

MTOR/FRAP1 = molecular target: T5, MTOR/FRAP1 (Homo sapiens, UniProt P42345); assay: Lipid kinase inhibitory activity, ADP-Glo; type: biochemical
T5 construct: purchased Reaction Biology Corporation (RBC)
Procedure: as §1, §2, §3, §4

PI3K (p110a(E545K)/p85a) = molecular target: T6, PI3K (p110a(E545K)/p85a) (Homo sapiens, UniProt P42336, E545K); assay: Lipid kinase inhibitory activity, ADP-Glo; type: biochemical; details: α E545K
T6 construct: purchased Reaction Biology Corporation (RBC)
Procedure: as §1, §2, §3, §4

PI3K (p110a(E542K)/p85a) = molecular target: T7, PI3K (p110a(E542K)/p85a) (Homo sapiens, UniProt P42336, E542K); assay: Lipid kinase inhibitory activity, ADP-Glo; type: biochemical; details: α E542K
T7 construct: purchased Reaction Biology Corporation (RBC)
Procedure: as §1, §2, §3, §4

PI3Ka (p110a/p85a) = molecular target: T8, PI3Ka (p110a/p85a) (Homo sapiens, UniProt P42336); assay: Lipid kinase inhibitory activity, ADP-Glo; type: biochemical; details: α
T8 construct: purchased Reaction Biology Corporation (RBC)
Procedure: as §1, §2, §3, §4

T6 sequence (P42336 whole entry E545K): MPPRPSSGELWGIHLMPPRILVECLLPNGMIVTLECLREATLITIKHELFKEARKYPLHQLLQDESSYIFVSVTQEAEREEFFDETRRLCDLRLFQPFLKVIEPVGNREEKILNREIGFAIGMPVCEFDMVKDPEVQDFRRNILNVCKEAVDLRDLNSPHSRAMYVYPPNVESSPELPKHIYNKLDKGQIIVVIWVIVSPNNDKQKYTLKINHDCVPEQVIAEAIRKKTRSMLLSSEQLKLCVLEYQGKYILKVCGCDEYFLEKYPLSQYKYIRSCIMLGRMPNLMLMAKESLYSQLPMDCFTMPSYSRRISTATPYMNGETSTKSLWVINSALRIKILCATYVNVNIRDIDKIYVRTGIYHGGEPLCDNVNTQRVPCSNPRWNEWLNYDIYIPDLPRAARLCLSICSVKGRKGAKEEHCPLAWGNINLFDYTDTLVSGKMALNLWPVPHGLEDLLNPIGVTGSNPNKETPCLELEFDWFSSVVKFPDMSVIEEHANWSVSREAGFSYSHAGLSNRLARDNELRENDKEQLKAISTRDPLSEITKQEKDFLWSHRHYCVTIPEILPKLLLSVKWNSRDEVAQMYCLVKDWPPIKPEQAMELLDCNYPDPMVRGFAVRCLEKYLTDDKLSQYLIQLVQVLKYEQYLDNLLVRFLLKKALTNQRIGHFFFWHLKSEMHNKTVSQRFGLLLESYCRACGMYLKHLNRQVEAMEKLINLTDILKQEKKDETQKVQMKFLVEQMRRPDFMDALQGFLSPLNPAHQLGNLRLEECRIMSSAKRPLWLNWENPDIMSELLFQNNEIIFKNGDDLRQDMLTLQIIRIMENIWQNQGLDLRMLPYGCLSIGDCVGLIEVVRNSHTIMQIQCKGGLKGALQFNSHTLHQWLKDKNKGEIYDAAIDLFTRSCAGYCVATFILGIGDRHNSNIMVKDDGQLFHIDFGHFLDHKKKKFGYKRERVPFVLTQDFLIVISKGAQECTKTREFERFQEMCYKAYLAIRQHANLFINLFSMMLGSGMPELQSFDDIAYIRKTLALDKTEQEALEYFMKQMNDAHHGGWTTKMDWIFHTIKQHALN
T6 sequence (P27986 whole entry partner): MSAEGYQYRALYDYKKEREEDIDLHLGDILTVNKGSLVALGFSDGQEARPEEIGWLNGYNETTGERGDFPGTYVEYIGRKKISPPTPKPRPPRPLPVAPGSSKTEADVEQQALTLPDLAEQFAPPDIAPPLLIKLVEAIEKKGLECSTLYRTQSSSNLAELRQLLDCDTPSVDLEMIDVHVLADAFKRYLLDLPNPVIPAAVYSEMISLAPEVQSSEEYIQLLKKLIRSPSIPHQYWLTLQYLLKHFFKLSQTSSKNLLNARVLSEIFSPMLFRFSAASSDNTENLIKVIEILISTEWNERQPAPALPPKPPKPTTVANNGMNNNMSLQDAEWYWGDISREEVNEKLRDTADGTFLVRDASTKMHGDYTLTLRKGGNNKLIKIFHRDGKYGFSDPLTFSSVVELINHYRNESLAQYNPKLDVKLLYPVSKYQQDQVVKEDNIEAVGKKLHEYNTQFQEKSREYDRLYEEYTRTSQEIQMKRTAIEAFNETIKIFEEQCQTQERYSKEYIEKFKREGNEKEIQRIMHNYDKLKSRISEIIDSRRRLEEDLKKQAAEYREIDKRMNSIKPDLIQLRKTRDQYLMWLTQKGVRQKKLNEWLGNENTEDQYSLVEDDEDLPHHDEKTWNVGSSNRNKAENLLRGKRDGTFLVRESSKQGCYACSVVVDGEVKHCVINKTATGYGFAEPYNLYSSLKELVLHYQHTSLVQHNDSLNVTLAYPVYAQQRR
T2 sequence (P42338 whole entry): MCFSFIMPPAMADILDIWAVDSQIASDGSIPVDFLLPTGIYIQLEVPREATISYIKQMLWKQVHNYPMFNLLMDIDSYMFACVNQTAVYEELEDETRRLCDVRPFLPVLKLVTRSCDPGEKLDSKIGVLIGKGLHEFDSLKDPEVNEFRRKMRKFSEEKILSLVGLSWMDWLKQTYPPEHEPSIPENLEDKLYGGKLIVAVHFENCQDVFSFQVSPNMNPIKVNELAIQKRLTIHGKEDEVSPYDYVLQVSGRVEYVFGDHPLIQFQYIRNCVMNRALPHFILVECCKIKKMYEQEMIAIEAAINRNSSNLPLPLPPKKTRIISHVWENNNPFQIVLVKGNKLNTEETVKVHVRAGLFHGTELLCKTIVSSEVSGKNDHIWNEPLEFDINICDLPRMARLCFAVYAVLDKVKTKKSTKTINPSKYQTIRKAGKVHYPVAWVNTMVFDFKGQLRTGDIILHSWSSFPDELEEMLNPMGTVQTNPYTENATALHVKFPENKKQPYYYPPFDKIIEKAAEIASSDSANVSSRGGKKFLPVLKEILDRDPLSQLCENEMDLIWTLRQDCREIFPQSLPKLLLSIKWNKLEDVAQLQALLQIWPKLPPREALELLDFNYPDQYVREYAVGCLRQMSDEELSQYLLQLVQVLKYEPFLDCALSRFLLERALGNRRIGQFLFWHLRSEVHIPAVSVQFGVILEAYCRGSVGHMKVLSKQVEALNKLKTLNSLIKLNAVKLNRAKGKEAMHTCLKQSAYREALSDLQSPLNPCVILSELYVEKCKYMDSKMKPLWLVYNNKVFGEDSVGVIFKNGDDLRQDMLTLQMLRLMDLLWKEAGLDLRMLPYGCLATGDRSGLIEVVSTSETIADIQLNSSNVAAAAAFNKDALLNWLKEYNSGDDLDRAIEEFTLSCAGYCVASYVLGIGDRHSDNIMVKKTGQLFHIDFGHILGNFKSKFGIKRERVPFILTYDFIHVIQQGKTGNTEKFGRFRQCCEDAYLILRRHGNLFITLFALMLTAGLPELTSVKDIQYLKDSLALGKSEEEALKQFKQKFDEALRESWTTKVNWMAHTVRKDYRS
T2 sequence (P27986 whole entry partner): as the sequence (P27986 whole entry partner) above
T4 sequence (P42336 whole entry H1047R): as the sequence (P42336 whole entry E545K) above, with K545E, H1047R counted along it
T4 sequence (P27986 whole entry partner): as the sequence (P27986 whole entry partner) above
T7 sequence (P42336 whole entry E542K): as the sequence (P42336 whole entry E545K) above, with E542K, K545E counted along it
T7 sequence (P27986 whole entry partner): as the sequence (P27986 whole entry partner) above
T8 sequence (P42336 whole entry): as the sequence (P42336 whole entry E545K) above, with K545E counted along it
T8 sequence (P27986 whole entry partner): as the sequence (P27986 whole entry partner) above
T3 sequence (P48736 whole entry): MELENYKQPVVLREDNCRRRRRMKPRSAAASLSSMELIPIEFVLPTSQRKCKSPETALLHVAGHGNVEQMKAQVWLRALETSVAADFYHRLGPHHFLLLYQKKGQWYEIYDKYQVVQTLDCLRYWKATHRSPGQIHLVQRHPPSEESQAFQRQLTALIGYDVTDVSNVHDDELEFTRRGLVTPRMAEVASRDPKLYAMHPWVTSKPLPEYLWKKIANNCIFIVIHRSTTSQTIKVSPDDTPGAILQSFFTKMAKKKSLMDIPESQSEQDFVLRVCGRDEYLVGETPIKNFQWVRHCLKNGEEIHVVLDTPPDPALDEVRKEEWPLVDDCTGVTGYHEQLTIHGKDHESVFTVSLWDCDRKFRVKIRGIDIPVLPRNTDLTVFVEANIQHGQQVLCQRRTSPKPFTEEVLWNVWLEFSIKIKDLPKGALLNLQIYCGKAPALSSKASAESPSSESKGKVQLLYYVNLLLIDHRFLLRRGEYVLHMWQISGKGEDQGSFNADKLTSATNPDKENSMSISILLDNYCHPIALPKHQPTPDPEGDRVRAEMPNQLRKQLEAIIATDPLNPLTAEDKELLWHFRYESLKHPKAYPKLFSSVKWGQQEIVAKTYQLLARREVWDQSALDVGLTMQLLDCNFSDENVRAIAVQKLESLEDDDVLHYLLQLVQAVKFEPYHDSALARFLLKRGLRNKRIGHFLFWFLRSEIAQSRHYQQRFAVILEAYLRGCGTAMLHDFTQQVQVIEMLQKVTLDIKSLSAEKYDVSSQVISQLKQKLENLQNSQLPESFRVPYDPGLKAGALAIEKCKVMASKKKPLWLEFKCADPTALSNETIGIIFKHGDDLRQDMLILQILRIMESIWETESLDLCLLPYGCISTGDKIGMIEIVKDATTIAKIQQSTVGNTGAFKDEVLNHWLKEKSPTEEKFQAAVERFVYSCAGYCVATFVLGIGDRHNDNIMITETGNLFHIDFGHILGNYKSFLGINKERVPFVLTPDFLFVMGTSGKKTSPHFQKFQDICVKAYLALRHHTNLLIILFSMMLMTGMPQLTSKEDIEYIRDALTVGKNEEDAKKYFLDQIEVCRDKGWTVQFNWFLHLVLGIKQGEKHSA

SMILES	percent hydrolysis to the parent compound MTPP [1] [%]	Stability in gel formulation [2]	percent hydrolysis to the parent compound MTPP ([2]; 0 days) [%]	percent hydrolysis to the parent compound MTPP ([2]; 5 days) [%]	percent hydrolysis to the parent compound MTPP ([2]; 7 days) [%]	percent hydrolysis to the parent compound MTPP ([2]; 10 days) [%]	IC50 (PI3Kd (p110d/p85a)) [nM]	IC50 (PI3Kb (p110b/p85a)) [nM]	IC50 (PI3Kg (p110g)) [nM]	IC50 [3] [nM]	IC50 (MTOR/FRAP1) [nM]	IC50 (PI3K (p110a(E545K)/p85a)) [nM]	IC50 (PI3K (p110a(E542K)/p85a)) [nM]	IC50 (PI3Ka (p110a/p85a)) [nM]
CCCCCCCC/C=C\CCCCCCCC(=O)Oc1cccc(-c2nc(N3CCOCC3)c3sccc3n2)c1 [Compound 1.011, 3-(4-Morpholinothieno[3,2-d]pyrimidin-2-yl)phenyl Oleate]	0.18	very stable	0.09	0.24	0.33	0.43	–	–	–	–	–	–	–	–
O=C(/C=C/c1ccccc1)Oc1cccc(-c2nc(N3CCOCC3)c3sccc3n2)c1 [Compound 1.014, 3-(4-Morpholinothieno[3,2-d]pyrimidin-2-yl)phenyl Cinnamate]	1.32	very stable	0.00	2.09	2.43	2.94	–	–	–	–	–	–	–	–
CC(=O)OCc1cccc(-c2nc(N3CCOCC3)c3sccc3n2)c1 [Compound 1.015, 3-(4-Morpholinothieno[3,2-d]pyrimidin-2-yl)benzyl acetate]	–	–	–	–	–	–	714	5590	131	3110	3320	4310	3690	1930
OCc1cccc(-c2nc(N3CCOCC3)c3sccc3n2)c1 [MTPPM, (3-(4-morpholinothieno[3,2-d]pyrimidin-2-yl)phenyl)methanol, reference compound]	–	–	–	–	–	–	17	56	61	7.8	113	9.8	9	7
